The record followed here is EP4617278A1, “NUCLEOTIDE ANALOG, AND COMPOSITION AND USE THEREOF” (priority 2022, dated 2024).

The test has as its system RSV A2 virus. Nature of the test: RSV CPE assay. Conditions: read-out: RSV A2 (Hep-2 cell) EC50.
Setting [1] is: human respiratory syncytial virus, HEp-2, 120 h.
The mark [2] stands for this setting: HEp-2 cells, RSV A2 virus, 5 days, CCK8.

Where two headings read alike, the source gives them in different places.

On to `CC(C)C(=O)O[C@H]1[C@@H](OC(=O)C(C)C)[C@](C#N)(c2ccc3c(N)ncnn23)O[C@@H]1CO[P@@](=O)(N[C@@H](CC(=O)OC1CCC1)C(=O)OC1CCC1)Oc1ccccc1` [Compound 54b, (2R,3R,4R,5R)-2-(4-aminopyrrolo[2,1-f][1,2,4]triazin-7-yl)-2-cyano-5-((((S)-(((S)-1,4-dicyclobutoxy-1,4-dioxobutan-2-yl)amino)(phenoxy)phosphoryl)oxy)methyl)tetrahydrofuran-3,4-diyl bis(2-methylpropionate)], for which the EC50 under setting [1] is under 100 nM.

In the case of `CCCCCOC(=O)C[C@H](N[P@](=O)(OC[C@H]1O[C@@](C#N)(c2ccc3c(N)ncnn23)[C@H](OC(=O)C(C)C)[C@@H]1OC(=O)C(C)C)Oc1ccccc1)C(=O)OCCCCC` [Compound 38b, (2R,3R,4R,5R)-2-(4-aminopyrrolo[2,1-f][1,2,4]triazin-7-yl)-2-cyano-5-((((S)-(((S)-1,4-dipentyloxy-1,4-dioxobutan-2-yl)amino)(phenoxy)phosphoryl)oxy)methyl)tetrahydrofuran-3,4-diyl bis(2-methylpropionate)], the EC50 under setting [1] is under 100 nM.

Consider `CC(C)(C)C(=O)O[C@H]1[C@@H](OC(=O)C(C)(C)C)[C@](C#N)(c2ccc3c(N)ncnn23)O[C@@H]1CO[P@@](=O)(N[C@H](C=O)CC(=O)OC1(C2CCCC2)CCCC1)Oc1ccccc1` [Compound 61b, (2R,3R,4R,5R)-2-(4-aminopyrrolo[2,1-f][1,2,4]triazin-7-yl)-2-cyano-5-((((S)-(((S)-1,4-bicyclopentyloxy-1,4-dioxobutan-2-yl)amino)(phenoxy)phosphoryl)oxy)methyl)tetrahydrofuran-3,4-diyl bis(2,2-dimethylpropionate)], for which the EC50 under setting [1] is 500 to 1000 nM.

Take `CCC(CC)COC(=O)[C@H](C)N[P@@](=O)(OCOC(=O)OC(C)C)OC[C@H]1O[C@@](C#N)(c2ccc3c(N)ncnn23)[C@H](OC(=O)C(C)C)[C@@H]1OC(=O)C(C)C` [Compound 7b, (2R,3R,4R,5R)-2-(4-aminopyrrolo[2,1-f][1,2,4]triazin-7-yl)-2-cyano-5-((((S)-(((S)-1-(2-ethylbutoxy)-1-oxopropan-2-yl)amino)(((isopropoxycarbonyl)oxy)methoxy)phosphoryl)oxy)methyl)tetrahydrofuran-3,4-diyl bis(2-methylpropionate)]: the EC50 under setting [1] was 100 to 200 nM.

On to `CC(C)C(=O)O[C@H]1[C@@H](OC(=O)C(C)C)[C@](C#N)(c2ccc3c(N)ncnn23)O[C@@H]1CO[P@@](=O)(N[C@@H](Cc1ccccc1)C(=O)OC1CCC1)Oc1ccccc1` [Compound 63b, (2R,3R,4R,5R)-2-(4-aminopyrrolo[2,1-f][1,2,4]triazin-7-yl)-2-cyano-5-((((S)-(((S)-1-cyclobutoxy-1-oxo-3-phenylpropan-2-yl)amino)(phenoxy)phosphoryl)oxy)methyl)tetrahydrofuran-3,4-diyl bis(2-methylpropionate)], for which, under setting [1], the EC50 was under 100 nM.

In the case of `CCCCCOC(=O)C[C@H](N[P@@](=O)(OC[C@H]1O[C@@](C#N)(c2ccc3c(N)ncnn23)[C@H](OC(=O)C(C)C)[C@@H]1OC(=O)C(C)C)Oc1ccc(C(C)(C)C)cc1)C(=O)OCCCCC` [Compound 39a, (2R,3R,4R,5R)-2-(4-aminopyrrolo[2,1-f][1,2,4]triazin-7-yl)-2-cyano-5-((((R)-(((S)-1,4-dipentyloxy-1,4-dioxobutan-2-yl)amino)(4-tert-butylphenoxy)phosphoryl)oxy)methyl)tetrahydrofuran-3,4-diyl bis(2-methylpropionate)], the EC50 under setting [1] was under 100 nM.

As for `CC(C)C(=O)O[C@H]1[C@@H](OC(=O)C(C)C)[C@](C#N)(c2ccc3c(N)ncnn23)O[C@@H]1CO[P@](=O)(N[C@@H](CC(=O)OC1CCC1)C(=O)OC1CCC1)Oc1ccccc1` [Compound 54a, (2R,3R,4R,5R)-2-(4-aminopyrrolo[2,1-f][1,2,4]triazin-7-yl)-2-cyano-5-((((R)-(((S)-1,4-dicyclobutoxy-1,4-dioxobutan-2-yl)amino)(phenoxy)phosphoryl)oxy)methyl)tetrahydrofuran-3,4-diyl bis(2-methylpropionate)], the EC50 under setting [1] lay within 100 to 200 nM.

As for `CC(C)C(=O)O[C@H]1[C@@H](OC(=O)C(C)C)[C@](C#N)(c2ccc3c(N)ncnn23)O[C@@H]1COP(=O)(OCCSC(=O)C(C)(C)C)OCCSC(=O)C(C)(C)C` [Compound 30, (2R,3R,4R,5R)-2-(4-aminopyrrolo[2,1-f][1,2,4]triazin-7-yl)-5-((((bis(2-(pivaloylthio)ethoxy))phosphoryl)oxy)methyl)-2-cyanotetrahydrofuran-3,4-diyl bis(2-methylpropionate)], the EC50 under setting [1] was in the range of 200 to 500 nM.

Regarding `CC(C)OC(=O)OCO[P@](=O)(N[C@@H](C)C(=O)OC1CCC1)OC[C@H]1O[C@@](C#N)(c2ccc3c(N)ncnn23)[C@H](OC(=O)C(C)C)[C@@H]1OC(=O)C(C)C` [Compound 13b, (2R,3R,4R,5R)-2-(4-aminopyrrolo[2,1-f][1,2,4]triazin-7-yl)-2-cyano-5-((((S)-(((S)-1-cyclobutoxy-1-oxopropan-2-yl)amino)(((isopropoxycarbonyl)oxy)methoxy)phosphoryl)oxy)methyl)tetrahydrofuran-3,4-diyl bis(2-methylpropionate)], the EC50 under setting [1] was in the range of 200 to 500 nM.

Consider `CC(C)OC(=O)OCO[P@@](=O)(N[C@@H](C)C(=O)OC(C)C)OC[C@H]1O[C@@](C#N)(c2ccc3c(N)ncnn23)[C@H](OC(=O)C(C)C)[C@@H]1OC(=O)C(C)C` [Compound 3a, (2R,3R,4R,5R)-2-(4-aminopyrrolo[2,1-f][1,2,4]triazin-7-yl)-2-cyano-5-((((R)-(((S)-1-isopropoxy-1-oxopropan-2-yl)amino)(((isopropoxycarbonyl)oxy)methoxy)phosphoryl)oxy)methyl)tetrahydrofuran-3,4-diyl bis(2-methylpropionate)], for which the EC50 under setting [1] lay within 200 to 500 nM.

For the compound `CCC(CC)COC(=O)[C@H](C)N[P@@](=O)(OCOC(=O)C(C)(C)C)OC[C@H]1O[C@@](C#N)(c2ccc3c(N)ncnn23)[C@H](OC(=O)C(C)C)[C@@H]1OC(=O)C(C)C` [Compound 11b, (2R,3R,4R,5R)-2-(4-aminopyrrolo[2,1-f][1,2,4]triazin-7-yl)-2-cyano-5-((((S)-(((S)-1-(2-ethylbutoxy)-1-oxopropan-2-yl)amino)((pivaloyloxy)methoxy)phosphoryl)oxy)methyl)tetrahydrofuran-3,4-diyl bis(2-methylpropionate)], the EC50 under setting [1] lay in the range of 200 to 500 nM.

As to “(2R,3R,4R,5R)-2-(4-aminopyrrolo[2,1-f][1,2,4]triazin-7-yl)-2-cyano-5-((((S)-(((S)-1,4-bicyclopentyloxy-1,4-dioxobutan-2-yl)amino)(phenoxy)phosphoryl)oxy)methyl)tetrahydrofuran-3,4-diyl dipropionate [Compound 59b]”, the EC50 under setting [2] is under 100 nM.

Regarding `CC(=O)O[C@H]1[C@@H](OC(C)=O)[C@](C#N)(c2ccc3c(N)ncnn23)O[C@@H]1COP(=O)(OCOC(=O)OC(C)C)OCOC(=O)OC(C)C` [Compound 17, (2R,3R,4R,5R)-2-(4-aminopyrrolo[2,1-f][1,2,4]triazin-7-yl)-5-((((bis(((isopropoxycarbonyl)oxy)methoxy)phosphoryl))oxy)methyl)-2-cyanotetrahydrofuran-3,4-diyl diacetate], the concentration for a half-maximal effect (EC50) under setting [1] lay in the range of 100 to 200 nM.

As to “(2R,3R,4R,5R)-2-(4-aminopyrrolo[2,1-f][1,2,4]triazin-7-yl)-2-cyano-5-((((S)-(((S)-1,4-bicyclopentyloxy-1,4-dioxobutan-2-yl)amino)(phenoxy)phosphoryl)oxy)methyl)tetrahydrofuran-3,4-diyl diacetate [Compound 58b]”, the EC50 under setting [2] was under 100 nM.

Take “(2R,3R,4R,5R)-2-(4-aminopyrrolo[2,1-f][1,2,4]triazin-7-yl)-2-cyano-5-((((S)-(((S)-1-isopropoxy-1-oxopropan-2-yl)amino)(((isopropoxycarbonyl)oxy)methoxy)phosphoryl)oxy)methyl)tetrahydrofuran-3,4-diyl diacetate [Compound 1b]”: the EC50 under setting [2] is 100 to 200 nM.

As to `CCCCCOC(=O)C[C@H](N[P@](=O)(OC[C@H]1O[C@@](C#N)(c2ccc3c(N)ncnn23)[C@H](OC(=O)C(C)C)[C@@H]1OC(=O)C(C)C)Oc1ccc(C(C)(C)C)cc1)C(=O)OCCCCC` [Compound 39b, (2R,3R,4R,5R)-2-(4-aminopyrrolo[2,1-f][1,2,4]triazin-7-yl)-2-cyano-5-((((S)-(((S)-1,4-dipentyloxy-1,4-dioxobutan-2-yl)amino)(4-tert-butylphenoxy)phosphoryl)oxy)methyl)tetrahydrofuran-3,4-diyl bis(2-methylpropionate)], the EC50 under setting [1] is under 100 nM.

Turning to “(2R,3R,4R,5R)-2-(4-aminopyrrolo[2,1-f][1,2,4]triazin-7-yl)-2-cyano-5-((((S)-(((S)-1-(2-ethylbutoxy)-1-oxopropan-2-yl)amino)(((isopropoxycarbonyl)oxy)methoxy)phosphoryl)oxy)methyl)tetrahydrofuran-3,4-diyl diacetate [Compound 5b]”, the EC50 under setting [2] lay within 100 to 200 nM.

Take `COC(C)(C)COC(=O)[C@H](Cc1ccccc1)N[P@](=O)(OC[C@H]1O[C@@](C#N)(c2ccc3c(N)ncnn23)[C@H](OC(=O)C(C)C)[C@@H]1OC(=O)C(C)C)Oc1ccccc1` [Compound 64b, (2R,3R,4R,5R)-2-(4-aminopyrrolo[2,1-f][1,2,4]triazin-7-yl)-2-cyano-5-((((S)-(((S)-1-(2-methoxy-2-methylpropoxy)-1-oxo-3-phenylpropan-2-yl)amino)(phenoxy)phosphoryl)oxy)methyl)tetrahydrofuran-3,4-diyl bis(2-methylpropionate)]: under setting [1], the EC50 was under 100 nM.

As for `CCC(CC)COC(=O)C1(N[P@@](=O)(OCOC(=O)OC(C)C)OC[C@H]2O[C@@](C#N)(c3ccc4c(N)ncnn34)[C@H](OC(=O)C(C)C)[C@@H]2OC(=O)C(C)C)CCC1` [Compound 32b, (2R,3R,4R,5R)-2-(4-aminopyrrolo[2,1-f][1,2,4]triazin-7-yl)-2-cyano-5-((((S)-((1-((2-ethylbutoxy)carbonyl)cyclobutyl)amino)(((isopropoxycarbonyl)oxy)methoxy)phosphoryl)oxy)methyl)tetrahydrofuran-3,4-diyl bis(2-methylpropionate)], under setting [1], the EC50 was in the range of 500 to 1000 nM.

What is called EC50 is the concentration needed to bring the measured effect to its halfway point.
